Experimental data published in patent US20240269304A1, “BCL-XL INHIBITOR ANTIBODY-DRUG CONJUGATES AND METHODS OF USE THEREOF” (Novartis AG, priority 2020, published 2024).
Read-outs that look alike come from different tables or passages of the source. Blank lines part the entries; values can stand above or below the molecule they belong to.

Assays:
[1] = ADC stability study: % aggregates by SEC after incubation at 37° C. for 168 h; type: physicochemical
Description: Size Exclusion Chromatography: Size exclusion chromatography (SEC) was performed for quality control of each ADCs by measuring monomer percentage of the conjugate. The analysis was performed on analytical column Superdex 200 Increase 5/150 GL (GE Healthcare, 28990945) in isocratic conditions 100% PBS pH7.4 (Sigma Life Science, P3813, 10PAK), flow 0.45 mI/min for 12 minutes. The % aggregate fraction of the conjugate sample was quantified based on the peak area absorbance at 280 nm. Its calculation was based on the ratio between the high molecular weight eluent at 280 nm divided by the sum of peak area absorbance at the same wavelength of the high molecular weight and monomeric eluents multiplied by 100.
Characterization of the exemplary ADCs is summarized in Table 13 (coupling, LC-MS method, OAR, aggregation status, ADO stability and yield). The average OAR values were determined using the above LC-MS methods and the percentage of aggregates was measured by size exclusion chromatography (SEC) during the quality control of the ADO and after the stability study (incubation at 37° C. for 168 h).

H1650 cells = test: CellTiterGlo (CTG) cell viability, 3D, 120 h, H1650 (Example 8); type: cell-based, human
ALL-SIL cells = test: CellTiterGlo (CTG) cell viability, 72 h, ALL-SIL (Example 8); type: cell-based
Description: ALL-SIL cells were cultivated in RPMI supplemented with 20% heat inactivated fetal bovine serum, penicillin (100 IU/ml), streptomycin (100 μg/ml) and L-glutamine (2 mM). Cell lines were cultured at 37° C. in a humidified atmosphere containing 5% CO2. Cells were seeded in 96 well clear bottom plates (96 well clear-bottom, white, Corning reference 3903) and exposed to the payloads or ADCs for 72 h (serially diluted; 9 concentrations each, triplicates). Effects of payloads or ADCs on cell viability were assessed after 3 days of incubation at 37° C./5% CO2 by quantification of cellular ATP levels using CellTiterGlo at 75 μL reagent/well. All the conditions were tested in triplicates. Luminescence was quantified on a multipurpose plate reader. IC50s were calculated using standard four-parametric curve fitting. […] Each experiment was performed at least twice, with results being reproducible.

DND-41 cells = test: CellTiterGlo (CTG) cell viability, 72 h, DND-41 (Example 8); type: cell-based
Description: DND-41 cells were cultivated in RPMI supplemented with 10% heat inactivated fetal bovine serum, penicillin (100 IU/ml), streptomycin (100 μg/ml) and L-glutamine (2 mM). Cell lines were cultured at 37° C. in a humidified atmosphere containing 5% CO2. […] Effects of payloads or ADCs on cell viability were assessed after 3 days of incubation at 37° C./5% CO2 by quantification of cellular ATP levels using CellTiterGlo at 75 μL reagent/well. All the conditions were tested in triplicates. Luminescence was quantified on a multipurpose plate reader. IC50s were calculated using standard four-parametric curve fitting.

ALL-SILL (T-ALL) = test: CellTiter-Glo viability 72 h, single agent or 1/1 combination, ALL-SIL (Example 9); type: cell-based; conditions: single agent or 1/1 combination as labelled
Description: Cell lines were cultured in the media described above at 37° C. in a humidified atmosphere containing 5% CO2. […] Effects of payloads or ADCs on cell viability were assessed after 3 days of incubation at 37° C./5% CO2 by quantification of cellular ATP levels using CellTiter-Glo reagent (Promega Ref: G7571) at 75 μL reagent/well. All the conditions were tested in triplicates. Luminescence was quantified on a multipurpose plate reader. IC50s were calculated using standard four-parametric curve fitting.

[2] = H1650 3D, experiment n1, read-out: H1650 3D CTG IC50 n1
[3] = H1650 3D, experiment n2, read-out: H1650 3D CTG IC50 n2
[4] = H1650 3D, mean of n1 and n2, read-out: H1650 3D CTG IC50 Mean of n1 and n2
[5] = experiment n1, read-out: ALLSIL CTG 72 h IC50 nM n1
[6] = experiment n2, read-out: ALLSIL CTG 72 h IC50 nM n2
[7] = mean of n1 and n2, read-out: ALLSIL CTG 72 h IC50 nM Mean of n1 and n2
[8] = experiment n1, read-out: DND41 CTG 72 h IC50 nM n1
[9] = experiment n2, read-out: DND41 CTG 72 h IC50 nM n2
[10] = mean of n1 and n2, read-out: DND41 CTG 72 h IC50 nM Mean of n1 and n2
[11] = n1, read-out: ALL-SILL (T-ALL) IC50 n1
[12] = n2, read-out: ALL-SILL (T-ALL) IC50 n2

SMILES: Cc1c(Nc2nc3ccccc3s2)nnc2c1CCCN2c1nc(C(=O)O)c(CCCOc2ccc(C#CCN3CCN(C(=O)OCc4ccc(NC(=O)[C@H](CCCNC(N)=O)NC(=O)[C@@H](NC(=O)CCOCCN5C(=O)CC(C)C5=O)C(C)C)cc4)CC3)cc2F)s1 (stereo partly drawn) [Ab C - L9C-P17]
Stab w1 +37° C. % Agg (by SEC) [1]: 22%
IC50 (H1650 cells; [2]): 2.85 nM
IC50 (H1650 cells; [3]): 2.51 nM
IC50 (H1650 cells; [4]): 2.68 nM

SMILES: C=C(C)CCCC[C@](C)(CC(=C)[C@@](C)(CC(=C)CCCCCC1C(=C)CC(C)C1=C)C(C)C)C(=C)Cc1ccc(CCC(=C)C(CCCCC)CCC[C@]23C[C@]4(C)C[C@](C)(C2)C[C@@](CC2C=CC(c5ccc(C(C)c6ccc(CC7=Cc8ccccc8C7)c(C)c6)cc5C(=C)C)=C2C)(C4)C3)cc1 (stereo partly drawn) [Ab C - L9C-P29]
Stab w1 +37° C. % Agg (by SEC) [1]: 16%
IC50 (H1650 cells; [2]): 0.13 nM
IC50 (H1650 cells; [3]): 0.09 nM
IC50 (H1650 cells; [4]): 0.11 nM

SMILES: C=C(C)CCCC[C@](C)(CC(=C)[C@@](C)(CC(=C)CCCCCC1C(=C)CC(C)C1=C)C(C)C)C(=C)Cc1ccc(CCC(=C)C2CCC(CCC[C@]34C[C@]5(C)C[C@](C)(C3)C[C@@](CC3C=CC(c6ccc(C7CCCc8c7ccc(CC7=Cc9ccccc9C7)c8C)cc6C(=C)C)=C3C)(C5)C4)CC2)cc1 (stereo partly drawn) [Ab C - L9C-P31]
Stab w1 +37° C. % Agg (by SEC) [1]: 6%
IC50 (H1650 cells; [2]): 0.07 nM
IC50 (H1650 cells; [3]): 0.1 nM
IC50 (H1650 cells; [4]): 0.09 nM

SMILES: Cc1c(Nc2nc3ccccc3s2)nnc2c1CCCN2c1nc(C(=O)O)c(CCCOc2ccc(C#CCN(C)C(=O)OCc3ccc(NC(=O)[C@H](CCCNC(N)=O)NC(=O)[C@@H](NC(=O)CCOCCN4C(=O)CC(C)C4=O)C(C)C)cc3S(=O)(=O)O)cc2F)s1 (stereo partly drawn) [Ab C - L27C-P3]
Stab w1 +37° C. % Agg (by SEC) [1]: 17%
IC50 (H1650 cells; [2]): 1.4 nM
IC50 (H1650 cells; [3]): 2.6 nM
IC50 (H1650 cells; [4]): 2 nM

SMILES: Cc1cc(N(C)c2nc(C(=O)O)c(CCCOc3ccc(C#CCN(C)C(=O)OCc4ccc(NC(=O)[C@H](C)NC(=O)[C@@H](NC(=O)CCOCCN5C(=O)CC(C)C5=O)C(C)C)cc4CC[C@@H]4O[C@H](C(=O)O)[C@@H](O)[C@H](O)[C@H]4O)cc3F)s2)nnc1Nc1nc2ccccc2s1 (stereo partly drawn) [Ab C -L106C-P7]
Stab w1 +37° C. % Agg (by SEC) [1]: 29%
IC50 (H1650 cells; [2]): 1.8 nM
IC50 (H1650 cells; [3]): 1.5 nM
IC50 (H1650 cells; [4]): 1.65 nM

SMILES: CC(=O)C1=C(CCCOc2ccc(C#CCC(C)(C)Cc3ccc(NC(=O)[C@H](CCCNC(N)=O)NC(=O)[C@@H](NC(=O)CCOCCN4C(=O)CC(C)C4=O)C(C)C)cc3)cc2C)CC(C2CCCC3C2=NN=C(NC2=Nc4ccccc4C2)C3C)=C1 (stereo partly drawn) [Ab D - L9A-P1]
Stab w1 +37° C. % Agg (by SEC) [1]: 8%
IC50 (ALL-SIL cells; [5]): 0.025 nM
IC50 (ALL-SIL cells; [6]): 0.037 nM
IC50 (ALL-SIL cells; [7]): 0.031 nM
IC50 (DND-41 cells; [8]): 0.16 nM
IC50 (DND-41 cells; [9]): 0.14 nM
IC50 (DND-41 cells; [10]): 0.15 nM

SMILES: Cc1c(Nc2nc3ccccc3s2)nnc2c1CCCN2c1nc(C(=O)O)c(CCCOc2ccc(C#CCN3CCN(C(=O)OCc4ccc(NC(=O)[C@H](CCCNC(N)=O)NC(=O)[C@@H](NC(=O)CCOCCN5C(=O)CC(C)C5=O)C(C)C)cc4)CC3)cc2F)s1 (stereo partly drawn) [Ab D - L9C-P17]
Stab w1 +37° C. % Agg (by SEC) [1]: 6%
IC50 (ALL-SIL cells; [5]): 0.006 nM
IC50 (ALL-SIL cells; [6]): 0.01 nM
IC50 (ALL-SIL cells; [7]): 0.008 nM
IC50 (DND-41 cells; [8]): 2.1 nM
IC50 (DND-41 cells; [9]): 0.38 nM
IC50 (DND-41 cells; [10]): 1.24 nM

SMILES: Cc1cc(N(CCCO)C2=NC(C(=O)O)=C(CCCOc3ccc(C#CCN(C)C(=O)OCc4ccc(NC(=O)[C@](C)(CCCNC(N)=O)NC(=O)[C@@H](NC(=O)CCOCCN5C(=O)CC(C)C5=O)C(C)C)cc4)cc3F)C2)nnc1Nc1nc2ccccc2s1 (stereo partly drawn) [Ab D - L9C-P45]
Stab w1 +37° C. % Agg (by SEC) [1]: 2%
IC50 (ALL-SIL cells; [5]): 0.36 nM
IC50 (ALL-SIL cells; [6]): 0.38 nM
IC50 (ALL-SIL cells; [7]): 0.37 nM
IC50 (DND-41 cells; [8]): > 100 nM
IC50 (DND-41 cells; [9]): > 100 nM
IC50 (DND-41 cells; [10]): > 100 nM

SMILES: Cc1cc(N(CCCC(O)CO)C2=NC(C(=O)O)=C(CCCOc3ccc(C#CCN(C)C(=O)OCc4ccc(NC(=O)[C@H](CCCNC(N)=O)NC(=O)[C@@H](NC(=O)CCOCCN5C(=O)CC(C)C5=O)C(C)C)cc4)cc3F)C2)nnc1Nc1nc2ccccc2s1 (stereo partly drawn) [Ab D - L9C-P46]
Stab w1 +37° C. % Agg (by SEC) [1]: 6%
IC50 (ALL-SIL cells; [5]): 0.18 nM
IC50 (ALL-SIL cells; [6]): 0.2 nM
IC50 (ALL-SIL cells; [7]): 0.19 nM
IC50 (DND-41 cells; [8]): > 100 nM
IC50 (DND-41 cells; [9]): > 100 nM
IC50 (DND-41 cells; [10]): > 100 nM

SMILES: C=C(C)CCCC[C@](C)(NC(=O)[C@@](C)(NC(=O)CCOCCN1C(=O)CC(C)C1=O)C(C)C)C(=O)Nc1ccc(CC(C)(C)CC#Cc2ccc(OCCCC3=C(C(C)=O)N=C(N4CCCc5c4nnc(Oc4nc6ccccc6o4)c5C)C3)c(C)c2)c(S(=O)(=O)O)c1 (stereo partly drawn) [Ab D - L27A-P1]
Stab w1 +37° C. % Agg (by SEC) [1]: 9%
IC50 (ALL-SIL cells; [5]): 0.028 nM
IC50 (ALL-SIL cells; [6]): 0.018 nM
IC50 (ALL-SIL cells; [7]): 0.023 nM
IC50 (DND-41 cells; [8]): 0.21 nM
IC50 (DND-41 cells; [9]): 0.28 nM
IC50 (DND-41 cells; [10]): 0.245 nM

IC50 (H1650 cells; Homo sapiens, NCI-H1650, H1650 3D, experiment n1, read-out: H1650 3D CTG IC50 n1): 0.89 nM
IC50 (H1650 cells; Homo sapiens, NCI-H1650, H1650 3D, experiment n2, read-out: H1650 3D CTG IC50 n2): 0.57 nM
IC50 (H1650 cells; Homo sapiens, NCI-H1650, H1650 3D, mean of n1 and n2, read-out: H1650 3D CTG IC50 Mean of n1 and n2): 0.73 nM
SMILES: Cc1c(Nc2nc3ccccc3s2)nnc2c1CCCN2c1ccc(-c2cnn(C[C@]34C[C@]5(C)C[C@](C)(C3)C[C@@](OCCN3CCCCCC3)(C5)C4)c2C)c(C(=O)O)n1 [P33, 3-[1-[[3-[2-(azepan-1-yl)ethoxy]-5,7-dimethyl-1-adamantyl]methyl]-5-methyl-pyrazol-4-yl]-6-[3-(1,3-benzothiazol-2-ylamino)-4-methyl-6,7-dihydro-5H-pyrido[2,3-c]pyridazin-8-yl]pyridine-2-carboxylic acid]
IC50 (ALL-SILL (T-ALL); mean, read-out: ALL-SILL (T-ALL) IC50 mean): 0.145 nM
IC50 (ALL-SILL (T-ALL); [11]): 0.1 nM
IC50 (ALL-SILL (T-ALL); [12]): 0.19 nM

SMILES: Cc1c(Nc2nc3ccccc3s2)nnc2c1CCCN2c1ccc(-c2cnn(CC34CC5(C)CC(C)(CC(CCCNCCCO)(C5)C3)C4)c2C)c(C(=O)O)n1 [P40, 6-[3-(1,3-benzothiazol-2-ylamino)-4-methyl-6,7-dihydro-5H-pyrido[2,3-c]pyridazin-8-yl]-3-[1-[[3-[3-(3-hydroxypropylamino)propyl]-5,7-dimethyl-1-adamantyl]methyl]-5-methyl-pyrazol-4-yl]pyridine-2-carboxylic acid]
IC50 (ALL-SILL (T-ALL); [11]): 1.06 nM
IC50 (ALL-SILL (T-ALL); [12]): 1.26 nM
